Source: US9611246B2, “Compositions, apparatus, systems, and methods for resolving electronic excited states” (HALLSTAR INNOVATIONS CORP., priority 2012, dated 2017)

Columns and labels:
HaCat cells = test: Dark toxicity analysis in HaCat cells (no irradiation); format: cell-based, human; conditions: 1 mM with ALA, no red light irradiation
Protocol: To make sure that ALA and conjugated fused polycyclics treatments themselves are not influencing cell viability, (or cause cellular toxicity), dark toxicity analysis was performed. The experiment procedures were exactly same as above for cell viability analysis except that the red light irradiation step was omitted.

[1] = Singlet oxygen phosphorescence from photoexcited protoporphyrin IX in air saturated DMSO-d6; format: physicochemical
Excerpt: Singlet oxygen was generated by pulsed laser excitation in the UV (355 nm) by protoporphyrin IX. Protoporphyrin IX was selected on the basis of its high extinction coefficient (FIG. 2). The solvent DMSO-d6 was selected because of good solubility of the sensitizer and stabilizers. The deuterated form of DMSO was used because of the longer singlet oxygen lifetime in deuterated solvents compared to solvents containing hydrogen. FIG. 10 and FIG. 11 show kinetic traces of singlet oxygen phosphorescence generated from photoexcitation of protoporphyrin IX. […] Excited state quenching of the protoporphyrin IX by the two compounds is unlikely to occur at these low stabilizer concentrations (μM).
In the previous experiments, singlet oxygen was generated by pulsed laser excitation in the UV spectral region (355 nm) of protoporphyrory IX. […] This was explained by a simple optical screening mechanism, where the compound of Formula I(a)(1) and alkoxy crylene absorb the UV light.
In this example, laser excitation was performed with visible light at 532 nm, where the compound of Formula I(a)(1) and the alkoxy crylene compound are transparent. […] The absence of singlet oxygen suppression with 532 nm excitation supports the optical screening mechanism with 355 nm excitation. […]

Compound | dark toxicity (HaCat cells) | singlet oxygen phosphorescence ([1]; 355 nm excitation, 250 μM stabilizer) | concentration above which the amount of generated singlet oxygen was reduced ([1]; 532 nm excitation)
COC(=O)C(C#N)=C1c2ccccc2C(=O)c2ccccc21 [Formula II(a)(1)] | a little toxicity |  | 
COC(=O)C(C#N)=C1c2ccccc2-c2ccccc21 [Formula I(a)(1)] |  | significantly reduced singlet oxygen phosphorescence | above 3 mM
